Results taken from paper PMC11551917 (RSC Advances, 2024).

Molecular target: Jack-bean urease (Canavalia ensiformis, UniProt P07374)
Test: indophenol ammonia assay, […] nm
Type: biochemical

Chain of Jack-bean urease (P07374 whole entry, looked up): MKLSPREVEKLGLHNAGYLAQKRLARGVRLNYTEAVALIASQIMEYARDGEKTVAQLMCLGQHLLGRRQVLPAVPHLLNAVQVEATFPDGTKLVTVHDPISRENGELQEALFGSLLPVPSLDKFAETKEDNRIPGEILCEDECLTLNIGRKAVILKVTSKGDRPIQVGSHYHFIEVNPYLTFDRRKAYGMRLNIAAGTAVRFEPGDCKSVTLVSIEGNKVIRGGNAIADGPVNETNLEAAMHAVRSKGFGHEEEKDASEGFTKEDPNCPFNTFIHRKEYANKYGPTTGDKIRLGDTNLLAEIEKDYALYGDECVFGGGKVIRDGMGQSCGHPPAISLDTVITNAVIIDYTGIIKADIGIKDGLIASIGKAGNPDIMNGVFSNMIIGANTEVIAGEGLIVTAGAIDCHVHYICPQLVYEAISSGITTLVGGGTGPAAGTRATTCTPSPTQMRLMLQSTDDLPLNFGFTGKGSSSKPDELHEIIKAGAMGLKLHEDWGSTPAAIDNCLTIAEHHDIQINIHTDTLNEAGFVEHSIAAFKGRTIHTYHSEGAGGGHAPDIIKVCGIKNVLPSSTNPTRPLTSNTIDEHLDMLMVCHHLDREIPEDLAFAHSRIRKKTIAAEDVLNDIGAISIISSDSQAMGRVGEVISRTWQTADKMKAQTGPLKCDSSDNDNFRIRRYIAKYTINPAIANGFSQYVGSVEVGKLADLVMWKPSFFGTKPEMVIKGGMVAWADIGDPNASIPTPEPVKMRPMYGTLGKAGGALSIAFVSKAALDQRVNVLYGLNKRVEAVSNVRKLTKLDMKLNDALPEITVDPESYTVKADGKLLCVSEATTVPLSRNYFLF

IC50 | SMILES
31.4 ± 0.48 µM | Nc1cccc(C(=O)O)c1 [3-ABA]
24.5 ± 0.47 µM | NC(N)=S [Thiourea]
